Laboratory results as given in ChEMBL document CHEMBL3045793, “The synthesis, anti-inflammatory and antimicrobial activity evaluation of novel thioanalogs of 3,4-dihydrothiopyrimidin-2(1H)-one derivatives of N-aryl urea” (2012).
≈ marks a conversion by molar mass, not a printed value. Calls of active or inactive are those of the source. The rule behind the calls is not given here.

Legend:
Aspergillus niger [1] = test: Antifungal activity against Aspergillus niger by agar well diffusion method; format: functional
Fusarium solani [2] = test: Antifungal activity against Fusarium solani up to 200 ug/ml by agar well diffusion method; format: functional, organism-based
Escherichia coli [3] = test: Antibacterial activity against Escherichia coli by agar well diffusion method; format: functional
THP-1 [4] = test: Anti-inflammatory activity in Homo sapiens (human) THP1 cells assessed as inhibition of LPS-induced IL-6 production preincubated at 10 uM for 30 min before LPS treatment measured after 24 hr by ELISA; format: functional
Staphylococcus aureus [5] = test: Antibacterial activity against Staphylococcus aureus by agar well diffusion method; format: functional
Bacillus subtilis [6] = test: Antibacterial activity against Bacillus subtilis by agar well diffusion method; format: functional
THP-1 [7] = test: Anti-inflammatory activity in Homo sapiens (human) THP1 cells assessed as inhibition of LPS-induced TNF-alpha production preincubated at 10 uM for 30 min before LPS treatment measured after 24 hr by ELISA; format: functional
Salmonella typhimurium [8] = test: Antibacterial activity against Salmonella enterica subsp. enterica serovar Typhimurium by agar well diffusion method; format: functional
Aspergillus flavus [9] = test: Antifungal activity against Aspergillus flavus up to 200 ug/ml by agar well diffusion method; format: functional, organism-based
Candida albicans [10] = test: Antifungal activity against Candida albicans by agar well diffusion method; format: functional
Candida albicans [11] = test: Antifungal activity against Candida albicans up to 200 ug/ml by agar well diffusion method; format: functional, organism-based
Aspergillus niger [12] = test: Antifungal activity against Aspergillus niger up to 200 ug/ml by agar well diffusion method; format: functional, organism-based
Escherichia coli [13] = test: Antibacterial activity against Escherichia coli up to 200 ug/ml by agar well diffusion method; format: functional, organism-based
Salmonella typhimurium [14] = test: Antibacterial activity against Salmonella enterica subsp. enterica serovar Typhimurium up to 200 ug/ml by agar well diffusion method; format: functional, organism-based
Bacillus subtilis [15] = test: Antibacterial activity against Bacillus subtilis up to 200 ug/ml by agar well diffusion method; format: functional, organism-based
Staphylococcus aureus [16] = test: Antibacterial activity against Staphylococcus aureus up to 200 ug/ml by agar well diffusion method; format: functional, organism-based
Fusarium solani [17] = test: Antifungal activity against Fusarium solani by agar well diffusion method; format: functional
Aspergillus flavus [18] = test: Antifungal activity against Aspergillus flavus by agar well diffusion method; format: functional
THP-1 [19] = test: Anti-inflammatory activity in Homo sapiens (human) THP1 cells assessed as inhibition of LPS-induced TNF-alpha production preincubated at 1 uM for 30 min before LPS treatment measured after 24 hr by ELISA; format: functional
THP-1 [20] = test: Anti-inflammatory activity in Homo sapiens (human) THP1 cells assessed as inhibition of LPS-induced IL-6 production preincubated at 1 uM for 30 min before LPS treatment measured after 24 hr by ELISA; format: functional

| Compound | MIC (Aspergillus niger [1]) | Activity (Fusarium solani [2]) | MIC (Escherichia coli [3]) | inhibition at 10 µM (THP-1 [4]) | MIC (Staphylococcus aureus [5]) | MIC (Bacillus subtilis [6]) | inhibition at 10 µM (THP-1 [7]) | MIC (Salmonella typhimurium [8]) | Activity (Aspergillus flavus [9]) | MIC (Candida albicans [10]) | Activity (Candida albicans [11]) | Activity (Aspergillus niger [12]) | Activity (Escherichia coli [13]) | Activity (Salmonella typhimurium [14]) | Activity (Bacillus subtilis [15]) | Activity (Staphylococcus aureus [16]) | MIC (Fusarium solani [17]) | MIC (Aspergillus flavus [18]) | inhibition at 1 µM (THP-1 [19]) | inhibition at 1 µM (THP-1 [20]) |
| --- | --- | --- | --- | --- | --- | --- | --- | --- | --- | --- | --- | --- | --- | --- | --- | --- | --- | --- | --- | --- |
| CCOC(=O)C1=C(C)NC(=S)NC1c1ccc(NC(=S)Nc2cc(C(F)(F)F)ccc2Cl)cc1 (centres undefined) | 90 µg/mL (≈ 170 µM) | inactive | 80 µg/mL (≈ 151 µM) | 96% | 90 µg/mL (≈ 170 µM) | 85 µg/mL (≈ 161 µM) | 78% | 90 µg/mL (≈ 170 µM) | inactive | 85 µg/mL (≈ 161 µM) | – | – | – | – | – | – | – | – | – | – |
| O=C(O)c1cn(C2CC2)c2cc(N3CCNCC3)c(F)cc2c1=O [CIPROFLOXACIN] | – | – | 15 µg/mL (≈ 45.3 µM) | – | – | 25 µg/mL (≈ 75.4 µM) | – | 25 µg/mL (≈ 75.4 µM) | – | – | – | – | – | – | – | – | – | – | – | – |
| CCCCc1ccc(NC(=S)Nc2ccc(C3NC(=S)NC(C)=C3C(=O)OCC)cc2)cc1 (centres undefined) | – | inactive | – | 8% | – | – | 0% | – | inactive | – | inactive | inactive | inactive | inactive | inactive | inactive | – | – | – | – |
| CCOC(=O)C1=C(C)NC(=S)NC1c1ccc([N+](=O)[O-])cc1 (centres undefined) | 65 µg/mL (≈ 202 µM) | – | 45 µg/mL (≈ 140 µM) | 3% | 40 µg/mL (≈ 124 µM) | 55 µg/mL (≈ 171 µM) | 0% | 30 µg/mL (≈ 93.4 µM) | – | 30 µg/mL (≈ 93.4 µM) | – | – | – | – | – | – | 75 µg/mL (≈ 233 µM) | 65 µg/mL (≈ 202 µM) | – | – |
| CCOC(=O)C1=C(C)NC(=S)NC1c1ccc(NC(=S)Nc2cc(F)cc(F)c2)cc1 (centres undefined) | 85 µg/mL (≈ 184 µM) | inactive | – | 82% | 65 µg/mL (≈ 141 µM) | 90 µg/mL (≈ 195 µM) | 55% | 90 µg/mL (≈ 195 µM) | inactive | – | inactive | – | inactive | – | – | – | – | – | – | – |
| CCOC(=O)C1=C(C)NC(=S)NC1c1ccc(NC(=S)Nc2ccc(C)c(C)c2)cc1 (centres undefined) | – | inactive | – | 8% | – | – | 0% | – | inactive | – | inactive | inactive | inactive | inactive | inactive | inactive | – | – | – | – |
| Clc1ccc(COC(Cn2ccnc2)c2ccc(Cl)cc2Cl)c(Cl)c1 (centres undefined) [MICONAZOLE] | 20 µg/mL (≈ 48.1 µM) | – | – | – | – | – | – | – | – | 25 µg/mL (≈ 60.1 µM) | – | – | – | – | – | – | 15 µg/mL (≈ 36 µM) | 20 µg/mL (≈ 48.1 µM) | – | – |
| CCOC(=O)C1=C(C)NC(=S)NC1c1ccc(NC(=O)Nc2ccccc2Oc2ccccc2)cc1 (centres undefined) | 60 µg/mL (≈ 119 µM) | – | 85 µg/mL (≈ 169 µM) | 42% | 55 µg/mL (≈ 109 µM) | 60 µg/mL (≈ 119 µM) | 0% | 65 µg/mL (≈ 129 µM) | – | 40 µg/mL (≈ 79.6 µM) | – | – | – | – | – | – | 45 µg/mL (≈ 89.5 µM) | 35 µg/mL (≈ 69.6 µM) | – | – |
| CCOC(=O)C1=C(C)NC(=S)NC1c1ccc(NC(=S)Nc2ccccc2C(F)(F)F)cc1 (centres undefined) | 50 µg/mL (≈ 101 µM) | – | 15 µg/mL (≈ 30.3 µM) | 18% | 10 µg/mL (≈ 20.2 µM) | 10 µg/mL (≈ 20.2 µM) | 8% | 40 µg/mL (≈ 80.9 µM) | – | 20 µg/mL (≈ 40.4 µM) | – | – | – | – | – | – | 20 µg/mL (≈ 40.4 µM) | 20 µg/mL (≈ 40.4 µM) | – | – |
| CCOC(=O)C1=C(C)NC(=S)NC1c1ccc(NC(=S)Nc2c(C)cccc2Cl)cc1 (centres undefined) | 90 µg/mL (≈ 189 µM) | – | 65 µg/mL (≈ 137 µM) | 55% | 40 µg/mL (≈ 84.2 µM) | 80 µg/mL (≈ 168 µM) | 32% | 65 µg/mL (≈ 137 µM) | – | 65 µg/mL (≈ 137 µM) | – | – | – | – | – | – | 60 µg/mL (≈ 126 µM) | 60 µg/mL (≈ 126 µM) | – | – |
| CCOC(=O)C1=C(C)NC(=S)NC1c1ccc(N)cc1 (centres undefined) | 55 µg/mL (≈ 189 µM) | – | 40 µg/mL (≈ 137 µM) | 3% | 60 µg/mL (≈ 206 µM) | 85 µg/mL (≈ 292 µM) | 0% | 45 µg/mL (≈ 154 µM) | – | 55 µg/mL (≈ 189 µM) | – | – | – | – | – | – | 35 µg/mL (≈ 120 µM) | 80 µg/mL (≈ 275 µM) | – | – |
| C[C@@H]1C[C@H]2[C@@H]3CCC4=CC(=O)C=C[C@]4(C)[C@@]3(F)[C@@H](O)C[C@]2(C)[C@@]1(O)C(=O)CO [DEXAMETHASONE] | – | – | – | – | – | – | – | – | – | – | – | – | – | – | – | – | – | – | 71% | 84% |
| CCOC(=O)C1=C(C)NC(=S)NC1c1ccc(NC(=S)Nc2ccccc2Cl)cc1 (centres undefined) | 10 µg/mL (≈ 21.7 µM) | – | 10 µg/mL (≈ 21.7 µM) | 36% | 20 µg/mL (≈ 43.4 µM) | 35 µg/mL (≈ 75.9 µM) | 0% | 20 µg/mL (≈ 43.4 µM) | – | 10 µg/mL (≈ 21.7 µM) | – | – | – | – | – | – | 10 µg/mL (≈ 21.7 µM) | 15 µg/mL (≈ 32.5 µM) | – | – |
